Experimental data from US20180200233A1, “COMPOSITIONS FOR PREVENTING CANCERS ASSOCIATED WITH HUMAN PAPILLOMA VIRUSES” (Loma Linda University, priority 2015, published 2018).

What was measured:
[1] = tested on: SCC84 (#84) cells; test: MTT cell viability, HPV- HNSCC cell line #84 with TRAIL; type: cell-based; conditions: 50 ng/ml TRAIL with myricetin 0-200 μM or spinacine 0-100 μM
Protocol: FIGS. 7A-E are graphs showing myricetin and spinacine (5) re-sensitized HPV^+, but not HPV^−, head and neck cancer cell lines to treatment with TRAIL. (FIG. 7A) Both HPV^− and HPV^+ HN cancer cell lines display resistance to TRAIL treatment. HPV^− (#84) (Myricetin—FIG. 7B; Spinacine—FIG. 7C) and HPV^+ (#90) (FIG. 7D; Spinacine—FIG. 7E) head and neck cancer cell lines (2×10^4 cells per well) were seeded into 96-well plates and allowed to incubate overnight, then cells were pre-treated with myricetin (0-200 μM) or spinacine (0-100 μM) for 4 h. […] Cell viability was measured by the MTT assay, and the viability of cells untreated with small molecules was set at 100%. Experiments were performed in triplicate, and error bars indicate the standard deviation.
As shown above, myricetin and spinacine sensitize SiHa cells to TRAIL and chemotherapy drugs. […] Other types of HPV^+ cancer cells were examined, and in particular, head and neck squamous cell carcinoma (HNSCC) cells can also be sensitized in this manner. […]
The extracellular domain of human TRAIL was cloned into a pTriEx expression plasmid containing N-terminal Hisx6 tag. […] All experiments were repeated at least three times (three biological replicates, carried out on different days), with each experimental group measured in triplicate within each of these individual experiments. […]

[2] = molecular target: T1, GST-E6/His-E6AP (Human papillomavirus type 16, UniProt P03126); test: AlphaScreen bead-based assay, GST-E6/His-E6AP binding; parameters: species or system HPV 16
T1 construct: made in house
Protocol: FIGS. 2A-C are graphs providing data regarding inhibition of protein-protein interactions by 3-(1H-indol-1yl)propan-1-amine (1), three benzimidazole derivatives (2-4), and spinacine (5). Compounds, at the indicated concentrations (1.4 μM to 3.2 mM) were tested using a bead-based screening assay for their ability to inhibit three different protein/protein interactions: (FIG. 2A) GST-E6/His-caspase 8; (FIG. 2B) GST-E6/HisE6AP; and (FIG. 2C) GST-caspase 8/His-caspase 8. Binding in the presence of 1.4 μM of the test compound was set at 100%. Experiments were performed in triplicate, and error bars indicate the standard deviation.
To determine the dose-responsiveness of these five compounds, variable concentrations of those small molecules were first tested for their ability to inhibit E6/caspase binding. […] These molecules, which had been selected for their ability to interfere with E6/caspase 8 binding, were then tested to determine if they could also affect other interactions of E6, such as its binding to E6-associated protein (E6AP). The E6/E6AP interaction is required for the E6-mediated acceleration of p53 degradation (Huibregtse, J. M., M. Scheffner, and P. M. Howley, A cellular protein mediates association of p53 with the E6 oncoprotein of human papillomavirus types 16 or 18. The EMBO journal, 1991. 10(13): p. 4129-35).
Alpha-Screen™ technology was used to assess the interactions between GST-E6, GST-caspase 8, His-E6AP, and His-caspase 8. Binding assays were performed in white 384-well plates (Perkin-Elmer) in a total volume of 25 μl as previously described (Tungteakkhun, S. S., et al., The interaction between human papillomavirus type 16 and FADD is mediated by a novel E6 binding domain. Journal of virology, 2008. 82(19): p. 9600-14). Briefly, 5 μl (50 ng) of GST-E6 and 5 μl (87.5 ng) of His-caspase 8 were included in each reaction mixture with 5 μl blocking buffer (0.5 mg BSA, 0.5% Tween 20 in PBS) in the absence or presence of 10 μM of each test chemical. Members of the library were present at […] in DMSO. After a one-hour incubation of the mixture at room temperature, 5 μl donor beads and 5 μl acceptor beads (Perkin-Elmer) were added to each well according to the manufacturer's protocol. The mixture was incubated in the dark at room temperature overnight, and the emitted signal was detected using the Envision Multilabel plate reader (Perkin-Elmer). In the presence of test chemicals, the binding affinity was calculated as a percentage of the binding in the presence of carrier only (DMSO).

T1 sequence (P03126 whole entry): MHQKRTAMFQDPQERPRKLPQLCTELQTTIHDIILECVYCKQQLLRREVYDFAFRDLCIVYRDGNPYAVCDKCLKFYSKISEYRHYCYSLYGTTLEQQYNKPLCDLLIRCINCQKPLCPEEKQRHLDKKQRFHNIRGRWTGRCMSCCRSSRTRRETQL

| Compound | response of HPV- HNSCC cell line #84 to TRAIL (in words) [1] | EC50 for GST-E6/His-E6AP interaction ([2]; bead-based assay, compounds tested 1.4 μM to 3.2 mM) | inhibition of E6/E6AP interaction (in words) ([2]; FIG. 2B) |
| --- | --- | --- | --- |
| O=c1c(O)c(-c2cc(O)c(O)c(O)c2)oc2cc(O)cc(O)c12 [Myricetin, reference compound] | resistant |  |  |
| OCn1cnc2ccccc21 [Compound 3, 1H-benzimidazole-1-methanol] |  | No Inhibition |  |
| O=C(O)C1Cc2[nH]cnc2CN1 (stereo not shown) [Compound 5, 4,5,6,7-Tetrahydro-1H-imidazo(4,5-c)pyridine-6-carboxylic acid] | resistant |  | could also inhibit the E6/E6AP interaction |
